Laboratory results published in PubChem BioAssay (NCI).
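How tested: cells in 96-well plates exposed to compound for 48 hours at five concentrations. GI50 is the concentration that inhibits growth by half. TGI: concentration producing complete growth inhibition.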

How the values were obtained:
Test in all cases: NCI tumour cell line growth inhibition, 48 h
RPMI-8226 leukemia = tested on: RPMI-8226 leukemia
HS 578T breast = tested on: HS 578T breast
SF-268 CNS = tested on: SF-268 CNS
CAKI-1 renal = tested on: CAKI-1 renal
TK-10 renal = tested on: TK-10 renal
OVCAR-4 ovarian = tested on: OVCAR-4 ovarian
PC-3 prostate = tested on: PC-3 prostate
OVCAR-3 ovarian = tested on: OVCAR-3 ovarian
SF-539 CNS = tested on: SF-539 CNS
SK-MEL-5 melanoma = tested on: SK-MEL-5 melanoma
UO-31 renal = tested on: UO-31 renal
MOLT-4 leukemia = tested on: MOLT-4 leukemia
NCI-H226 lung = tested on: NCI-H226 lung
COLO 205 colon = tested on: COLO 205 colon
UACC-257 melanoma = tested on: UACC-257 melanoma
U251 CNS = tested on: U251 CNS
LOX IMVI melanoma = tested on: LOX IMVI melanoma
ACHN renal = tested on: ACHN renal
RXF 393 renal = tested on: RXF 393 renal
MCF7 breast = tested on: MCF7 breast
HL-60(TB) leukemia = tested on: HL-60(TB) leukemia
NCI-H23 lung = tested on: NCI-H23 lung
SNB-19 CNS = tested on: SNB-19 CNS
SN12C renal = tested on: SN12C renal
T-47D breast = tested on: T-47D breast
HOP-62 NSCLC = tested on: HOP-62 NSCLC
MDA-MB-231 breast = tested on: MDA-MB-231 breast
NCI-H460 lung = tested on: NCI-H460 lung
786-0 renal = tested on: 786-0 renal
A498 renal = tested on: A498 renal
NCI-H522 lung = tested on: NCI-H522 lung
SK-MEL-28 melanoma = tested on: SK-MEL-28 melanoma
OVCAR-8 ovarian = tested on: OVCAR-8 ovarian
OVCAR-5 ovarian = tested on: OVCAR-5 ovarian
HCC-2998 colon = tested on: HCC-2998 colon
HCT-116 colon = tested on: HCT-116 colon
SR leukemia = tested on: SR leukemia
IGROV1 ovarian = tested on: IGROV1 ovarian
A549 NSCLC = tested on: A549 NSCLC
HCT-15 colon = tested on: HCT-15 colon
UACC-62 melanoma = tested on: UACC-62 melanoma
EKVX NSCLC = tested on: EKVX NSCLC
MALME-3M melanoma = tested on: MALME-3M melanoma
K-562 leukemia = tested on: K-562 leukemia
MDA-MB-435 = tested on: MDA-MB-435
SF-295 CNS = tested on: SF-295 CNS
M14 melanoma = tested on: M14 melanoma
NCI/ADR-RES ovarian = tested on: NCI/ADR-RES ovarian
CCRF-CEM leukemia = tested on: CCRF-CEM leukemia
HT29 colon = tested on: HT29 colon
SK-OV-3 ovarian = tested on: SK-OV-3 ovarian
KM12 colon = tested on: KM12 colon
DU-145 prostate = tested on: DU-145 prostate
BT-549 breast = tested on: BT-549 breast
SW-620 colon = tested on: SW-620 colon
SK-MEL-2 melanoma = tested on: SK-MEL-2 melanoma
HOP-92 NSCLC = tested on: HOP-92 NSCLC

With Cc1ccn2c3c(c(C(=O)O)c2c1)C(=O)c1ccccc1C3=O the GI50 (RPMI-8226 leukemia) was > 100 µM, the TGI (RPMI-8226 leukemia) was > 100 µM and the GI50 (HS 578T breast) was 3.71 µM. For the same molecule, the TGI (HS 578T breast) was 29.8 µM, the GI50 (SF-268 CNS) was > 100 µM and the TGI (SF-268 CNS) was > 100 µM. The GI50 (CAKI-1 renal) was > 100 µM, the TGI (CAKI-1 renal) was > 100 µM and the GI50 (TK-10 renal) was > 100 µM. The TGI (TK-10 renal) was > 100 µM, the GI50 (OVCAR-4 ovarian) was 12.6 µM and the TGI (OVCAR-4 ovarian) was > 100 µM. The GI50 (PC-3 prostate) was > 100 µM, the TGI (PC-3 prostate) was > 100 µM and the GI50 (OVCAR-3 ovarian) was 2.9 µM. For the same molecule, the TGI (OVCAR-3 ovarian) was > 70.3 µM, the GI50 (SF-539 CNS) was 4.46 µM and the TGI (SF-539 CNS) was 64.7 µM. It also gave a GI50 (SK-MEL-5 melanoma) of 0.679 µM, a TGI (SK-MEL-5 melanoma) of 1.97 µM and a GI50 (UO-31 renal) of 25.8 µM. The TGI (UO-31 renal) was > 100 µM, the GI50 (MOLT-4 leukemia) was > 100 µM and the TGI (MOLT-4 leukemia) was > 100 µM. The GI50 (NCI-H226 lung) was 2.46 µM, the TGI (NCI-H226 lung) was 17.4 µM and the GI50 (COLO 205 colon) was 2.62 µM. For the same molecule, the TGI (COLO 205 colon) was 8.75 µM, the GI50 (UACC-257 melanoma) was 4.41 µM and the TGI (UACC-257 melanoma) was > 60.3 µM. The GI50 (U251 CNS) was 15.7 µM, the TGI (U251 CNS) was > 100 µM and the GI50 (LOX IMVI melanoma) was 4.36 µM. The TGI (LOX IMVI melanoma) was > 100 µM, the GI50 (ACHN renal) was > 96.4 µM and the TGI (ACHN renal) was > 100 µM. The GI50 (RXF 393 renal) was 10.4 µM, the TGI (RXF 393 renal) was > 100 µM and the GI50 (MCF7 breast) was 6.52 µM. The TGI (MCF7 breast) was 97.2 µM, the GI50 (HL-60(TB) leukemia) was > 100 µM and the TGI (HL-60(TB) leukemia) was > 100 µM. It also gave a GI50 (NCI-H23 lung) of 1.74 µM, a TGI (NCI-H23 lung) of 5.88 µM and a GI50 (SNB-19 CNS) of 4.24 µM. The TGI (SNB-19 CNS) was > 100 µM, the GI50 (SN12C renal) was 7.97 µM and the TGI (SN12C renal) was > 100 µM. For the same molecule, the GI50 (T-47D breast) was > 100 µM, the TGI (T-47D breast) was > 100 µM and the GI50 (HOP-62 NSCLC) was 5.93 µM. The TGI (HOP-62 NSCLC) was > 100 µM, the GI50 (MDA-MB-231 breast) was 11.8 µM and the TGI (MDA-MB-231 breast) was > 100 µM. The GI50 (NCI-H460 lung) was 1.36 µM, the TGI (NCI-H460 lung) was 3.07 µM and the GI50 (786-0 renal) was > 87.4 µM. For the same molecule, the TGI (786-0 renal) was > 100 µM, the GI50 (A498 renal) was 5.01 µM and the TGI (A498 renal) was 40.5 µM. The GI50 (NCI-H522 lung) was > 45.7 µM, the TGI (NCI-H522 lung) was > 100 µM and the GI50 (SK-MEL-28 melanoma) was 4.44 µM. The TGI (SK-MEL-28 melanoma) was > 100 µM, the GI50 (OVCAR-8 ovarian) was > 100 µM and the TGI (OVCAR-8 ovarian) was > 100 µM. The GI50 (OVCAR-5 ovarian) was 30.5 µM, the TGI (OVCAR-5 ovarian) was > 100 µM and the GI50 (HCC-2998 colon) was 4.58 µM. For the same molecule, the TGI (HCC-2998 colon) was > 100 µM, the GI50 (HCT-116 colon) was > 48.3 µM and the TGI (HCT-116 colon) was > 100 µM. For the same molecule, the GI50 (SR leukemia) was > 30.5 µM, the TGI (SR leukemia) was > 100 µM and the GI50 (IGROV1 ovarian) was > 42.1 µM. For the same molecule, the TGI (IGROV1 ovarian) was > 100 µM, the GI50 (A549 NSCLC) was 1.77 µM and the TGI (A549 NSCLC) was 4.4 µM. For the same molecule, the GI50 (HCT-15 colon) was 5.14 µM, the TGI (HCT-15 colon) was > 100 µM and the GI50 (UACC-62 melanoma) was 2.44 µM. The TGI (UACC-62 melanoma) was 9.13 µM, the GI50 (EKVX NSCLC) was 48 µM and the TGI (EKVX NSCLC) was > 100 µM. The GI50 (MALME-3M melanoma) was 0.48 µM, the TGI (MALME-3M melanoma) was 1.92 µM and the GI50 (K-562 leukemia) was > 100 µM. The TGI (K-562 leukemia) was > 100 µM, the GI50 (MDA-MB-435) was 1.57 µM and the TGI (MDA-MB-435) was 3.05 µM. It also gave a GI50 (SF-295 CNS) of 2.25 µM, a TGI (SF-295 CNS) of 8.68 µM and a GI50 (M14 melanoma) of 1.11 µM. The TGI (M14 melanoma) was 2.64 µM, the GI50 (NCI/ADR-RES ovarian) was 49.8 µM and the TGI (NCI/ADR-RES ovarian) was > 100 µM. For the same molecule, the GI50 (CCRF-CEM leukemia) was > 100 µM, the TGI (CCRF-CEM leukemia) was > 100 µM and the GI50 (HT29 colon) was 4.61 µM. The TGI (HT29 colon) was > 100 µM, the GI50 (SK-OV-3 ovarian) was > 100 µM and the TGI (SK-OV-3 ovarian) was > 100 µM. For the same molecule, the GI50 (KM12 colon) was 9.31 µM, the TGI (KM12 colon) was > 100 µM and the GI50 (DU-145 prostate) was 1.68 µM. For the same molecule, the TGI (DU-145 prostate) was 3.18 µM, the GI50 (BT-549 breast) was 3.9 µM and the TGI (BT-549 breast) was 53.6 µM. For the same molecule, the GI50 (SW-620 colon) was 15.1 µM, the TGI (SW-620 colon) was > 100 µM and the GI50 (SK-MEL-2 melanoma) was > 100 µM. The TGI (SK-MEL-2 melanoma) was > 100 µM, the GI50 (HOP-92 NSCLC) was > 100 µM and the TGI (HOP-92 NSCLC) was > 100 µM.
